US10016515B2, “DMA, a bis-benzimidazole, confers radioprotection to the intestine via Akt/NFκB dual pathway activation” (Jawaharlal Nehru University, priority 2016, dated 2018)
Read-outs that look alike come from different tables or passages of the source.

Test: Tissue bio-distribution and tissue pharmacokinetics of DMA
Format: in vivo, mouse
Conditions: for concentration at 2 h / concentration at 4 h / concentration at 6 h / concentration at 16 h / concentration at 24 h / concentration at 1 h / half-life / Tmax / Cmax: Balb/c, mouse
Description: Tissue samples were collected from the same mice from which blood samples were collected in both doses of DMA. Lung, liver, kidney, intestine, heart, spleen, brain were dissected and rinsed with phosphate buffer saline (PBS) and dried on blotting paper. 100 mg of tissue sample was homogenized for 20 s in chilled acetronitrile and water and further 700 μl chilled acetronitrile was added. The sample was centrifuged at 14000 rpm for 10 min and clear supernatant was collected for analysis on HPLC-MS/MS system.
A standard DMA calibration from 1-1000 ng/ml with internal standard (20 ng/ml) was quantified. Sample analysis was performed on positive ionization mode LC-MS/MS with multiple reactions monitoring (MRM, m/z Q1/Q3) of DMA (m/z 235.1/412.0, retention time (RT) 5.3 min) and internal standard (m/z 227.1/396.0, RT 6.5 min) (Agilent 6410 series). A gradient method was employed to analyze the plasma samples using mobile phase A (0.1% formic acid in water) and mobile phase B (methanol). The B % was set as 30 (0 min), 90 (10-14 min), 30 (14-24 min) with flow rate of 0.3 ml/min. An injection volume of 10 μl was used for analysis.
Peak tissue concentration (Cmax) of DMA and time to reach the Cmax (tmax) were read directly from the raw data by visual examination of mean tissue concentration-time profile. The tissue concentration-time data following oral dose were subjected to one-, two- and three-compartmental models using WinNonlin program (version 6.3; Certara Inc, Missouri, USA) to calculate the pharmacokinetic parameters. The pharmacokinetic models were compared according to maximal correlation between observed and predicted concentration, minimal sum of squared residuals, Akaike Information Criterion (AIC) and Schwarz Bayesian Criterion (SBC). However, the tissue concentration-time data following intravenous administration were subjected to non-compartmental approach.

[1] = intestine, iv, i.v. 50 mg/kg, read-out: Tissue DMA concentration, Intestine
[2] = intestine, Oral 100 mg/kg, read-out: Tissue DMA concentration, Intestine
[3] = kidney, iv, i.v. 50 mg/kg, read-out: Tissue DMA concentration, Kidney
[4] = kidney, Oral 100 mg/kg, read-out: Tissue DMA concentration, Kidney
[5] = liver, iv, i.v. 50 mg/kg, read-out: Tissue DMA concentration, Liver
[6] = liver, Oral 100 mg/kg, read-out: Tissue DMA concentration, Liver
[7] = lung, iv, i.v. 50 mg/kg, read-out: Tissue DMA concentration, Lung
[8] = lung, Oral 100 mg/kg, read-out: Tissue DMA concentration, Lung
[9] = spleen, iv, i.v. 50 mg/kg, read-out: Tissue DMA concentration, Spleen
[10] = spleen, Oral 100 mg/kg, read-out: Tissue DMA concentration, Spleen

COc1ccc(-c2nc3cc(-c4nc5cc(N6CCN(C)CC6)ccc5[nH]4)ccc3[nH]2)cc1OC [DMA, 5-(4-methylpiperazin-1-yl)-2-[2′-(3,4-dimethoxyphenyl)-5′-benzimidazolyl]benzimidazole]
Concentration achieved in intestine (50 mg/kg i.v.): 1260 µg/g
Small intestine concentration, i.v. as compared to oral route (50 mg/kg i.v. vs 100 mg/kg oral): 11.88 fold
AUC, Kidney (50 mg/kg intravenous): 945577.2 ng·h/g
AUC, Liver (50 mg/kg intravenous): 889040 ng·h/g
AUC, Lung (50 mg/kg intravenous): 2674622.2 ng·h/g
AUC, Small Intestine (50 mg/kg intravenous): 220072.6 ng·h/g
AUC, Spleen (50 mg/kg intravenous): 145191 ng·h/g
C1 hr, Kidney (50 mg/kg intravenous): 14900 ng/g
C1 hr, Liver (50 mg/kg intravenous): 41600 ng/g
C1 hr, Lung (50 mg/kg intravenous): 109000 ng/g
C1 hr, Small Intestine (50 mg/kg intravenous): 1260000 ng/g
Clearance, Kidney (50 mg/kg intravenous): 17.9 g/h/kg
Clearance, Liver (50 mg/kg intravenous): 39.5 g/h/kg
Clearance, Small Intestine (50 mg/kg intravenous): 15.0 g/h/kg
Clearance, Spleen (50 mg/kg intravenous): 89.3 g/h/kg
Vd, Kidney (50 mg/kg intravenous): 1944.8 g/kg
Vd, Liver (50 mg/kg intravenous): 668.7 g/kg
Vd, Lung (50 mg/kg intravenous): 552.1 g/kg
Vd, Small Intestine (50 mg/kg intravenous): 40360.3 g/kg
Vd, Spleen (50 mg/kg intravenous): 3857.9 g/kg
Vss, Kidney (50 mg/kg intravenous): 1623.5 g/kg
Vss, Liver (50 mg/kg intravenous): 496.11 g/kg
Vss, Lung (50 mg/kg intravenous): 10.72 g/kg
Vss, Small Intestine (50 mg/kg intravenous): 4.9 g/kg
Vss, Spleen (50 mg/kg intravenous): 4114.6 g/kg
AUC, Kidney (100 mg/kg oral dose): 10874.29 ng·h/g
AUC, Liver (100 mg/kg oral dose): 20717.3 ng·h/g
AUC, Small Intestine (100 mg/kg oral dose): 361353.4 ng·h/g
AUC, Spleen (100 mg/kg oral dose): 8353.819 ng·h/g
Cl/F, Kidney (100 mg/kg oral dose): 9190 g/h/kg
Cl/F, Liver (100 mg/kg oral dose): 4000 g/h/kg
Cl/F, Small Intestine (100 mg/kg oral dose): 277 g/h/kg
Cl/F, Spleen (100 mg/kg oral dose): 11000 g/h/kg
Cmax, Kidney (100 mg/kg oral dose): 1530 ng/g
Cmax, Liver (100 mg/kg oral dose): 2230 ng/g
Maximum concentration in small intestine (100 mg/kg oral, at 2 h): 106 µg/g
Maximum concentration in spleen (100 mg/kg oral, at 2 h): 1.31 µg/g
Maximum concentration in kidney (100 mg/kg oral, at 4 h): 1.53 µg/g
Maximum concentration in liver (100 mg/kg oral, at 4 h): 2.23 µg/g
concentration at 2 h [1]: 70400 ng/g
concentration at 4 h (intestine, iv, i.v. 50 mg/kg, 4 h, read-out: Tissue DMA concentration, Intestine): 59200 ng/g
concentration at 6 h (intestine, iv, i.v. 50 mg/kg, 6 h, read-out: Tissue DMA concentration, Intestine): 29700 ng/g
concentration at 16 h [1]: 2530 ng/g
concentration at 24 h [1]: 1710 ng/g
concentration at 1 h (intestine, Oral 100 mg/kg, 1 h, read-out: Tissue DMA concentration, Intestine): 675 ng/g
concentration at 2 h [2]: 106000 ng/g
concentration at 4 h (intestine, Oral 100 mg/kg, 4 h, read-out: Tissue DMA concentration, Intestine): 30200 ng/g
concentration at 6 h (intestine, Oral 100 mg/kg, 6 h, read-out: Tissue DMA concentration, Intestine): 28700 ng/g
concentration at 16 h [2]: 612 ng/g
concentration at 24 h [2]: 410 ng/g
concentration at 1 h (kidney, intravenous, 50 mg/kg i.v., read-out: Concentration achieved in kidney): 14900 ng/g
concentration at 1 h (kidney, iv, i.v. 50 mg/kg, 1 h, read-out: Tissue DMA concentration, Kidney): 14900 ng/g
concentration at 2 h [3]: 8370 ng/g
concentration at 4 h (kidney, iv, i.v. 50 mg/kg, 4 h, read-out: Tissue DMA concentration, Kidney): 9080 ng/g
concentration at 6 h (kidney, iv, i.v. 50 mg/kg, 6 h, read-out: Tissue DMA concentration, Kidney): 707 ng/g
concentration at 16 h [3]: 263 ng/g
half-life (kidney, 100 mg/kg oral dose, read-out: Half life, Kidney (converted)): 2.5 h
Tmax (kidney, 100 mg/kg oral dose, read-out: Tmax, Kidney): 4 h
concentration at 1 h (kidney, Oral 100 mg/kg, 1 h, read-out: Tissue DMA concentration, Kidney): 342 ng/g
concentration at 2 h [4]: 1020 ng/g
concentration at 4 h (kidney, Oral 100 mg/kg, 4 h, read-out: Tissue DMA concentration, Kidney): 1530 ng/g
concentration at 6 h (kidney, Oral 100 mg/kg, 6 h, read-out: Tissue DMA concentration, Kidney): 643 ng/g
concentration at 16 h [4]: 193 ng/g
concentration at 1 h (liver, intravenous, 50 mg/kg i.v., read-out: Concentration achieved in liver): 41600 ng/g
concentration at 1 h (liver, iv, i.v. 50 mg/kg, 1 h, read-out: Tissue DMA concentration, Liver): 41600 ng/g
concentration at 2 h [5]: 2000 ng/g
concentration at 4 h (liver, iv, i.v. 50 mg/kg, 4 h, read-out: Tissue DMA concentration, Liver): 30100 ng/g
concentration at 6 h (liver, iv, i.v. 50 mg/kg, 6 h, read-out: Tissue DMA concentration, Liver): 40100 ng/g
concentration at 16 h [5]: 22200 ng/g
half-life (liver, 100 mg/kg oral dose, read-out: Half life, Liver (converted)): 4 h
Tmax (liver, 100 mg/kg oral dose, read-out: Tmax, Liver): 4 h
concentration at 1 h (liver, Oral 100 mg/kg, 1 h, read-out: Tissue DMA concentration, Liver): 161 ng/g
concentration at 2 h [6]: 415 ng/g
concentration at 4 h (liver, Oral 100 mg/kg, 4 h, read-out: Tissue DMA concentration, Liver): 2230 ng/g
concentration at 6 h (liver, Oral 100 mg/kg, 6 h, read-out: Tissue DMA concentration, Liver): 735 ng/g
concentration at 16 h [6]: 691 ng/g
concentration at 24 h [6]: 192 ng/g
concentration at 1 h (lung, intravenous, 50 mg/kg i.v., read-out: Concentration achieved in lung): 109000 ng/g
concentration at 1 h (lung, iv, i.v. 50 mg/kg, 1 h, read-out: Tissue DMA concentration, Lung): 109000 ng/g
concentration at 2 h [7]: 2340 ng/g
concentration at 4 h (lung, iv, i.v. 50 mg/kg, 4 h, read-out: Tissue DMA concentration, Lung): 1770 ng/g
concentration at 6 h (lung, iv, i.v. 50 mg/kg, 6 h, read-out: Tissue DMA concentration, Lung): 1340 ng/g
concentration at 16 h [7]: 993 ng/g
concentration at 24 h [7]: 730 ng/g
concentration at 4 h (lung, 100 mg/kg oral, at 4 h, read-out: Concentration reached in lung): 1000 ng/g
concentration at 1 h (lung, Oral 100 mg/kg, 1 h, read-out: Tissue DMA concentration, Lung): 211 ng/g
concentration at 2 h [8]: 436 ng/g
concentration at 4 h (lung, Oral 100 mg/kg, 4 h, read-out: Tissue DMA concentration, Lung): 1000 ng/g
concentration at 6 h (lung, Oral 100 mg/kg, 6 h, read-out: Tissue DMA concentration, Lung): 538 ng/g
concentration at 16 h [8]: 188 ng/g
Cmax (small intestine, 100 mg/kg oral dose, read-out: Cmax, Small Intestine): 106000 ng/g
half-life (small intestine, 100 mg/kg oral dose, read-out: Half life, Small Intestine (converted)): 1.9 h
Tmax (small intestine, 100 mg/kg oral dose, read-out: Tmax, Small Intestine): 2 h
concentration at 6 h (spleen, intravenous, 50 mg/kg i.v., read-out: Concentration achieved in spleen): 12100 ng/g
concentration at 1 h (spleen, iv, i.v. 50 mg/kg, 1 h, read-out: Tissue DMA concentration, Spleen): 6970 ng/g
concentration at 2 h [9]: 6450 ng/g
concentration at 4 h (spleen, iv, i.v. 50 mg/kg, 4 h, read-out: Tissue DMA concentration, Spleen): 2090 ng/g
concentration at 6 h (spleen, iv, i.v. 50 mg/kg, 6 h, read-out: Tissue DMA concentration, Spleen): 12100 ng/g
concentration at 16 h [9]: 9600 ng/g
concentration at 1 h (spleen, 50 mg/kg intravenous, read-out: C1 hr, Spleen): 6970 ng/g
Cmax (spleen, 100 mg/kg oral dose, read-out: Cmax, Spleen): 1310 ng/g
half-life (spleen, 100 mg/kg oral dose, read-out: Half life, Spleen (converted)): 4.2 h
Tmax (spleen, 100 mg/kg oral dose, read-out: Tmax, Spleen): 2 h
concentration at 1 h (spleen, Oral 100 mg/kg, 1 h, read-out: Tissue DMA concentration, Spleen): 401 ng/g
concentration at 2 h [10]: 1310 ng/g
concentration at 4 h (spleen, Oral 100 mg/kg, 4 h, read-out: Tissue DMA concentration, Spleen): 681 ng/g
concentration at 6 h (spleen, Oral 100 mg/kg, 6 h, read-out: Tissue DMA concentration, Spleen): 558 ng/g
concentration at 16 h [10]: 254 ng/g
Tissue DMA concentration, Intestine (i.v. 50 mg/kg, 1 h): 1260000 ng/g of tissue
Tissue accumulation (oral and i.v.): preferential accumulation in small intestine
